Measured values published in patent publication US20240083910A1, “AMIDO-SUBSTITUTED PYRIDYL COMPOUNDS AND METHODS OF USE THEREOF FOR THE TREATMENT OF HERPESVIRUSES” (Merck Sharp & Dohme LLC, priority 2020, published 2024).

Tests used:
[1] = biological target: T1, Human cytomegalovirus DNA polymerase (Human cytomegalovirus, UniProt P08546); test: CMV polymerase assay (AlphaLISA); assay type: biochemical; conditions: HCMV polymerase 0.2 nM; 30 min pre-incubation; 60 min at 37° C.; read-out: CMV (IC50)
T1 construct: made in house; host or cells: SF21 insect cells (baculovirus vector)
Protocol: Human cytomegalovirus and varicella zoster virus DNA polymerases were expressed via baculovirus vector in SF21 cells and purified. Heterodimeric nucleic acid substrate used in the herpesvirus polymerase reactions was generated by annealing a 59-mer template to a 17-mer digoxigenin-labeled primer. Polymerase (HCMV final concentration of 0.2 nM; VZV final concentration of 0.4 nM) was combined with an inhibitor compound or DMSO in assay buffer (10 mM HEPES, pH 7.5, 25 mM KCl, 25 mM NaCl, 5 mM MgCl2, 5% glycerol, 0.67 mg/ml bovine serum albumin, and 1 mM tris(2-carboxyethyl)phosphine), and this mixture was pre-incubated for 30 minutes at room temperature in 384-well microtiter plates. The polymerization reaction was initiated by the addition of template/primer substrate (final concentration: 1.6 nM), and dNTPs (final concentration: 24 nM dCTP, 24 nMdGTP, 16 nM dATP, 16 nM dTTP, and 0.8 nM biotin-dUTP). After 60 min incubation at 37° C., reactions were terminated with quench buffer (25 mM HEPES pH 7.5, 100 mM NaCl, 0.25% Tween-20, 12 mM EDTA, and 1 mg/ml bovine serum albumin). Incorporation of biotinylated UTP was detected with 2.5-5 ug/ml anti-DIG AlphaLISA acceptor beads and 5-10 ug/ml streptavidin AlphaLISA donor beads (PerkinElmer). Compound effects were normalized to the window defined by the controls (DMSO only and pre-quenched wells) and were fit using a 4-parameter algorithm to report an IC50.

HCMV Strain AD169 = test: Viral qPCR assay, HCMV; assay type: cell-based, Human cytomegalovirus; conditions: Human betaherpesvirus 5, AD169, MRC5, 72 h, MRC-5 cells, 0.05-0.1 pfu/cell, growth media or 50% fetal bovine serum, viral genome copies by qPCR, read-out: CMV Cell (EC50)
Protocol: (§1) MRC5 cells, Vero cells, and MeWo cells were obtained from ATCC, and were maintained at 37° C./5% CO2/90% relative humidity in Minimal Essential Medium with 10% fetal bovine serum, […] L-glutamine, 100 units/ml penicillin and 100 ug/ml streptomycin. Assay plates were prepared by dispensing compounds dissolved in DMSO into wells of 384 well collagen-coated plates using an ECHO acoustic dispenser. Each compound was tested in a 10-point, serial 3-fold dilution. Controls included uninfected cells and infected cells treated only with DMSO. Assays were initiated by mixing selected cells, in suspension, with virus, and dispensing 50 μl/well infected cells to pre-plated compounds. Plates were incubated at 37° C./5% CO2/90% relative humidity for ˜72 hrs to permit genomic replication, and infected cells were lysed by the addition of an equal volume of lysis buffer (10 mM Tris-HCl, pH8, 50 mM KCl, 2 mM MgCl2, 0.45% NP-40, 0.45% Tween-20, and 100 μg/ml proteinase K). An aliquot of the lysate was transferred to a 384-well PCR plate and incubated at 56° C. for 1 hour and then at 95° C. for 10 min. Levels of a viral gene and of the cellular control, PPIA (Thermo Fisher Assay ID=Hs04194521_s1), were measured in separate 10 ul qPCR assays using TaqMan® Gene Expression Master Mix (Applied Biosystems), and an 7900HT Fast Real-Time PCR System with 384-Well Block Module. 7-point, serial 10-fold dilutions of a plasmid standard were run on each plate to generate a standard curve, and genome copies numbers were calculated by plotting experimental Ct onto linear regression of the standard curve. Viral genome copy numbers were normalized by cellular control copy number, and compound effects were normalized to the window defined by the controls. Calculated % effects were fit using a 4-parameter algorithm, and EC50 was reported.
(§2) MRC5 cells, Vero cells, and MeWo cells were obtained from ATCC, and were maintained at 37° C./5% CO2/90% relative humidity in Minimal Essential Medium with 10% fetal bovine serum, […] L-glutamine, 100 units/ml penicillin and 100 ug/ml streptomycin. Assay plates were prepared by dispensing compounds dissolved in DMSO into wells of 384 well collagen-coated plates using an ECHO acoustic dispenser. Each compound was tested in a 10-point, serial 3-fold dilution. Controls included uninfected cells and infected cells treated only with DMSO. Assays were initiated by mixing selected cells, in suspension, with virus, and dispensing 50 μl/well infected cells to pre-plated compounds. Plates were incubated at 37° C./5% CO2/90% relative humidity for ˜72 hrs to permit genomic replication, and infected cells were lysed by the addition of an equal volume of lysis buffer (10 mM Tris-HCl, pH 8, 50 mM KCl, 2 mM MgC12, 0.45% NP-40, 0.45% Tween-20, and 100 μg/ml proteinase K). An aliquot of the lysate was transferred to a 384-well PCR plate and incubated at 56° C. for 1 hour and then at 95° C. for 10 min. Levels of a viral gene were measured in 10 ul qPCR assays using TaqMan® Gene Expression Master Mix (Applied Biosystems), and an 7900HT Fast Real-Time PCR System with 384-Well Block Module. 7-point, serial 10-fold dilutions of a plasmid standard were run on each plate to generate a standard curve, and genome copies numbers were calculated by plotting experimental Ct onto linear regression of the standard curve. Compound effects on viral genome copy number were normalized to the window defined by the controls. Calculated % effects were fit using a 4-parameter algorithm, and ECso was reported.
HCMV: Strain AD169 Street was assayed in MRC-5 cells and was used at 0.05-0.1 pfu/cell. The assays were performed in either growth media or in the same media with 50% fetal bovine serum. Primer-probe set was Thermo Fisher Assay ID=AIFATFK.

HSV-1 Strain F = test: Viral qPCR assay, HSV-1; assay type: cell-based, Herpes Simplex Virus type 1; conditions: Human alphaherpesvirus 1, 72 h, Vero or MRC5 cells, 0.0005-0.004 pfu/cell, growth medium, viral genome copies by qPCR, read-out: HSV1 Cell (EC50)
Protocol: as §1, §2
HSV-1: Strain F […] was assayed in Vero or MRC5 cells and was used at 0.0005-0.004 pfu/cell in growth medium. Primer-probe set was Thermo Fisher Assay ID=AIBJZIB

VZV = test: Viral qPCR assay, VZV; assay type: cell-based, varicella zoster virus; conditions: Human alphaherpesvirus 3, 72 h, MeWo or MRC5 cells, 0.04-0.1 pfu/cell, growth medium, viral genome copies by qPCR
Protocol: as §1, §2
VZV: Strain Street was maintained as an infected cell stock in MRC-5 cells. It was assayed in MeWo or MRC5 cells and was used at 0.04-0.1 pfu/cell. The assays were performed in growth medium. Primer-probe set was Thermo Fisher Assay ID=AIPAEXQ.

T1 sequence (P08546 whole entry): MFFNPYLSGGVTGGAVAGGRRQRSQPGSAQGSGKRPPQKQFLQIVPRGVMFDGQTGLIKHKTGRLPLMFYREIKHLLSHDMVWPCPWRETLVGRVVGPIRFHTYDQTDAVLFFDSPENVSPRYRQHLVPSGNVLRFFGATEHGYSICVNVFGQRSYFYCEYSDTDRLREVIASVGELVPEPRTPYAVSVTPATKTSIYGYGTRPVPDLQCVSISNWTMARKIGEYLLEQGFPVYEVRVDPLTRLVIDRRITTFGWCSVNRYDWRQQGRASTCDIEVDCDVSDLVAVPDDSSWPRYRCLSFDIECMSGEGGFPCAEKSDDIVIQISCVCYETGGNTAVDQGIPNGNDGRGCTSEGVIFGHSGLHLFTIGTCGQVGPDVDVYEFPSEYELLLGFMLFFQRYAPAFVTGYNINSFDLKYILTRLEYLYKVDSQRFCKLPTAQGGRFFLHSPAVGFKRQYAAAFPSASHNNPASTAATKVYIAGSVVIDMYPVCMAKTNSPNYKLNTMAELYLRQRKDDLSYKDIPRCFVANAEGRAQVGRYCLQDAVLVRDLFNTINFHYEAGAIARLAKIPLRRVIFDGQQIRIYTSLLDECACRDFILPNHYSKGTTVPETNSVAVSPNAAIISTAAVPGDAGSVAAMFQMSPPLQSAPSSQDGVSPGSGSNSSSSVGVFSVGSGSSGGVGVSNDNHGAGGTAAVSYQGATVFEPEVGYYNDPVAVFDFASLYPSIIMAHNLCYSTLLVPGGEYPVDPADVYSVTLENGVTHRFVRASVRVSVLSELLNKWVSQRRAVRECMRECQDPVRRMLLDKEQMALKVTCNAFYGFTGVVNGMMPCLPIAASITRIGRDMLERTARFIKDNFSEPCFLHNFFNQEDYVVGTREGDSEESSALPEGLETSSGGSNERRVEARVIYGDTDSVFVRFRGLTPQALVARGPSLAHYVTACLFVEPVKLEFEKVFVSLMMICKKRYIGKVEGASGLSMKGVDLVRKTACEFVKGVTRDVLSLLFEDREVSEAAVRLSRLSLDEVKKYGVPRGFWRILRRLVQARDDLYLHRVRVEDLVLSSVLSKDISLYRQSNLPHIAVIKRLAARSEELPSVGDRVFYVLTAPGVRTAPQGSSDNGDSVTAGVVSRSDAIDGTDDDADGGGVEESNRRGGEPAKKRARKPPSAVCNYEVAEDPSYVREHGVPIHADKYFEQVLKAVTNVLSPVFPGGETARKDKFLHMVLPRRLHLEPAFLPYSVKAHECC

Structure (SMILES) | IC50 [1] [nM] | EC50 (HCMV Strain AD169) [nM] | EC50 (HSV-1 Strain F) [nM] | EC50 (VZV) [nM]
COc1nc(-c2ccsc2)c(O[C@H]2CCN3C(=O)OC[C@@H]3C2)cc1C(=O)NCc1ccc(Cl)cc1 [Compound 21] | 20.9 | 500 | 377 | 417
COc1nc(-c2occc2C=O)c(O[C@H]2CCN3C(=O)OC[C@@H]3C2)cc1C(=O)NCc1ccc(Cl)cc1 [Compound 23] | 18 | 140 | 87.4 | 117
COCCn1cc(-c2nc(OC)c(C(=O)NCc3ccc(Cl)cc3)cc2O[C@H]2CCN3C(=O)OC[C@@H]3C2)cn1 [Compound 25] | 6.77 | 159 | 146 | 186
COc1nc(-c2cc3ccccc3[nH]2)c(O[C@H]2CCN3C(=O)OC[C@@H]3C2)cc1C(=O)NCc1ccc(Cl)cc1 [Compound 26] | 5.8 | 372 | 174 | 208
COc1nc(-c2cc3nccnc3[nH]2)c(O[C@H]2CCN3C(=O)OC[C@@H]3C2)cc1C(=O)NCc1ccc(Cl)cc1 [Compound 27] | 33.6 | 556 | 648 | 859
COc1nc(-c2cc[nH]c2)c(O[C@H]2CCN3C(=O)OC[C@@H]3C2)cc1C(=O)NCc1ccc(Cl)cc1 [Compound 28] | 5.36 | 200 | 103 | 196
COc1nc(-c2csc(-n3cccn3)n2)c(O[C@H]2CCN3C(=O)OC[C@@H]3C2)cc1C(=O)NCc1ccc(Cl)cc1 [Compound 29] | 31.2 | 514 | 246 | 368
COc1nc(-c2ccn(C)c2)c(O[C@H]2CCN3C(=O)OC[C@@H]3C2)cc1C(=O)NCc1ccc(Cl)cc1 [Compound 30] | 14.5 | 462 | 202 | 187
CCn1cc(-c2nc(OC)c(C(=O)NCc3ccc(Cl)cc3)cc2O[C@H]2CCN3C(=O)OC[C@@H]3C2)cn1 [Compound 31] | 5.13 | 175 | 103 | 102
COc1nc(-c2cnn(CCO)c2)c(O[C@H]2CCN3C(=O)OC[C@@H]3C2)cc1C(=O)NCc1ccc(Cl)cc1 [Compound 32] | 0.705 | 103 | 52 | 106
COc1ccc(-c2nc(OC)c(C(=O)NCc3ccc(Cl)cc3)cc2O[C@H]2CCN3C(=O)OC[C@@H]3C2)s1 [Compound 33] | 11 | 901 | 144 | 679
COc1csc(-c2nc(OC)c(C(=O)NCc3ccc(Cl)cc3)cc2O[C@H]2CCN3C(=O)OC[C@@H]3C2)c1 [Compound 34] | 8.26 | 421 | 260 | 1920
COc1nc(-c2ccc(N)nc2)c(O[C@H]2CCN3C(=O)OC[C@@H]3C2)cc1C(=O)NCc1ccc(Cl)cc1 [Compound 36] | 3.38 | 175 | 82 | 92.3
COc1nc(-c2ccc3[nH]ccc3c2)c(O[C@H]2CCN3C(=O)OC[C@@H]3C2)cc1C(=O)NCc1ccc(Cl)cc1 [Compound 39] | 81.5 | 886 | 658 | 1360
COc1nc(-c2cnc3[nH]ccc3c2)c(O[C@H]2CCN3C(=O)OC[C@@H]3C2)cc1C(=O)NCc1ccc(Cl)cc1 [Compound 41] | 17 | 606 | 494 | 418
COc1nc(-c2ccncc2)c(O[C@H]2CCN3C(=O)OC[C@@H]3C2)cc1C(=O)NCc1ccc(Cl)cc1 [Compound 42] | 10.4 | 194 | 79.8 | 130
COc1ccc(-c2nc(OC)c(C(=O)NCc3ccc(Cl)cc3)cc2O[C@H]2CCN3C(=O)OC[C@@H]3C2)cn1 [Compound 43] | 22.3 | 422 | 169 | 298
COc1nc(-c2cncc(CO)c2)c(O[C@H]2CCN3C(=O)OC[C@@H]3C2)cc1C(=O)NCc1ccc(Cl)cc1 [Compound 44] | 20 | 326 | 263 | 585
COc1nc(-c2cnc(N)nc2)c(O[C@H]2CCN3C(=O)OC[C@@H]3C2)cc1C(=O)NCc1ccc(Cl)cc1 [Compound 45] | 2.3 | 111 | 50 | 141
COc1nc(-c2ccc(=O)[nH]c2)c(O[C@H]2CCN3C(=O)OC[C@@H]3C2)cc1C(=O)NCc1ccc(Cl)cc1 [Compound 47] | 4.87 | 1300 | 654 | 2320
